Assay results reported in ChEMBL document CHEMBL1201862, “PubChem BioAssay data set” (2004).
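A five-concentration, 48-hour dose response in 96-well plates underlies each endpoint, interpolated linearly between surrounding concentrations. Abbreviation: GI50, concentration required for 50% inhibition of growth.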 The source made the active and inactive calls. Rule as the data show it: active = GI50 up to about 1.1 µM and inactive = higher.

How the values were obtained:
Assay in all cases: NCI anticancer screen, dose series, 48 h
HCC 2998 = test system: HCC 2998
IGROV-1 = test system: IGROV-1
NCI-H460 = test system: NCI-H460
HCT-15 = test system: HCT-15
A549 = test system: A549
MOLT-4 = test system: MOLT-4
ACHN = test system: ACHN
K562 = test system: K562
HOP-62 = test system: HOP-62
SK-MEL-28 = test system: SK-MEL-28
Malme-3M = test system: Malme-3M
A498 = test system: A498
RPMI-8226 = test system: RPMI-8226
OVCAR-4 = test system: OVCAR-4
KM12 = test system: KM12
NCI-H522 = test system: NCI-H522
UACC-257 = test system: UACC-257
MDA-N = test system: MDA-N
U-251 = test system: U-251
HL-60 = test system: HL-60
PC-3 = test system: PC-3
SK-OV-3 = test system: SK-OV-3
MCF7 = test system: MCF7
OVCAR-8 = test system: OVCAR-8
NCI-H23 = test system: NCI-H23
SK-MEL-2 = test system: SK-MEL-2
BT-549 = test system: BT-549
TK-10 = test system: TK-10
SNB-19 = test system: SNB-19
MDA-MB-231 = test system: MDA-MB-231
OVCAR-5 = test system: OVCAR-5
CAKI-1 = test system: CAKI-1
UACC-62 = test system: UACC-62
CCRF-CEM = test system: CCRF-CEM
SN12C = test system: SN12C
M14 = test system: M14
DU-145 = test system: DU-145
COLO 205 = test system: COLO 205
LOX IMVI = test system: LOX IMVI
UO-31 = test system: UO-31
HOP-92 = test system: HOP-92
Hs-578T = test system: Hs-578T
SF-268 = test system: SF-268
SK-MEL-5 = test system: SK-MEL-5
OVCAR-3 = test system: OVCAR-3
HT-29 = test system: HT-29
MDA-MB-435 = test system: MDA-MB-435
786-0 = test system: 786-0
SF-295 = test system: SF-295
SW-620 = test system: SW-620
SR = test system: SR
NCI-H226 = test system: NCI-H226
SF-539 = test system: SF-539
SNB-75 = test system: SNB-75
NCI/ADR-RES = test system: NCI/ADR-RES
T47D = test system: T47D
HCT-116 = test system: HCT-116
RXF 393 = test system: RXF 393
EKVX = test system: EKVX

`O=C1c2ccccc2C(=O)c2c(OCC3CO3)ccc(OCC3CO3)c21` (configuration not stated) was tested, and the GI50 (HCC 2998) was 16.1 µM (inactive), the GI50 (IGROV-1) was 3.54 µM (inactive) and the GI50 (NCI-H460) was 1.99 µM (inactive). The GI50 (HCT-15) was 1.74 µM, the GI50 (A549) was 3.46 µM (inactive) and the GI50 (MOLT-4) was 0.0653 µM (active). The GI50 (ACHN) was 0.964 µM (active), the GI50 (K562) was 0.982 µM (active) and the GI50 (HOP-62) was 1.95 µM (inactive). For the same compound, the GI50 (SK-MEL-28) was 5.47 µM (inactive), the GI50 (Malme-3M) was 7.74 µM (inactive) and the GI50 (A498) was 17.9 µM (inactive). The GI50 (RPMI-8226) was 6 µM (inactive), the GI50 (OVCAR-4) was 6.52 µM (inactive) and the GI50 (KM12) was 5.04 µM (inactive). The GI50 (NCI-H522) was 3.26 µM (inactive), the GI50 (UACC-257) was 6.04 µM (inactive) and the GI50 (MDA-N) was 3.8 µM (inactive). The GI50 (U-251) was 2.92 µM (inactive), the GI50 (HL-60) was 0.118 µM (active) and the GI50 (PC-3) was 4.42 µM (inactive). For the same compound, the GI50 (SK-OV-3) was 12.4 µM (inactive), the GI50 (MCF7) was 0.195 µM (active) and the GI50 (OVCAR-8) was 1.48 µM (inactive). For the same compound, the GI50 (NCI-H23) was 4.12 µM (inactive), the GI50 (SK-MEL-2) was 14 µM (inactive) and the GI50 (BT-549) was 6.28 µM (inactive). The GI50 (TK-10) was 18.8 µM (inactive), the GI50 (SNB-19) was 7.67 µM (inactive) and the GI50 (MDA-MB-231) was 12.5 µM (inactive). For the same compound, the GI50 (OVCAR-5) was 10.5 µM (inactive), the GI50 (CAKI-1) was 1.91 µM (inactive) and the GI50 (UACC-62) was 2.1 µM (inactive). The GI50 (CCRF-CEM) was < 0.0167 µM (active), the GI50 (SN12C) was 1.07 µM (active) and the GI50 (M14) was 1.3 µM (inactive). The GI50 (DU-145) was 3.18 µM (inactive), the GI50 (COLO 205) was 4.44 µM (inactive) and the GI50 (LOX IMVI) was 0.0386 µM (active). The GI50 (UO-31) was 2.94 µM (inactive), the GI50 (HOP-92) was 2.67 µM (inactive) and the GI50 (Hs-578T) was 16.2 µM (inactive). For the same compound, the GI50 (SF-268) was 0.346 µM (active), the GI50 (SK-MEL-5) was 5.69 µM (inactive) and the GI50 (OVCAR-3) was 3.4 µM (inactive). The GI50 (HT-29) was 4.84 µM (inactive), the GI50 (MDA-MB-435) was 2.7 µM (inactive) and the GI50 (786-0) was 1.48 µM (inactive). For the same compound, the GI50 (SF-295) was 2.28 µM (inactive), the GI50 (SW-620) was 1.1 µM (active) and the GI50 (SR) was 0.113 µM (active). For the same compound, the GI50 (NCI-H226) was 12.4 µM (inactive), the GI50 (SF-539) was 4.15 µM (inactive) and the GI50 (SNB-75) was 12.4 µM (inactive). The GI50 (NCI/ADR-RES) was 2.21 µM (inactive), the GI50 (T47D) was 6 µM (inactive) and the GI50 (HCT-116) was 1.99 µM (inactive). For the same compound, the GI50 (RXF 393) was 3.96 µM (inactive) and the GI50 (EKVX) was 12.5 µM (inactive).
With `CC1(C)CCC[C@@]2(C)C1C(=O)[C@@H]1O[C@]1(C)[C@@H]2CO` (some centres not stated) the GI50 (HCC 2998) was 20.4 µM (inactive), the GI50 (IGROV-1) was 45.8 µM (inactive) and the GI50 (NCI-H460) was 13.5 µM (inactive). The GI50 (HCT-15) was 38 µM, the GI50 (A549) was 19.6 µM (inactive) and the GI50 (MOLT-4) was 39 µM (inactive). For the same compound, the GI50 (ACHN) was 40.3 µM (inactive), the GI50 (K562) was 27.3 µM (inactive) and the GI50 (HOP-62) was 40.2 µM (inactive). The GI50 (SK-MEL-28) was 13.7 µM (inactive), the GI50 (Malme-3M) was 37.9 µM (inactive) and the GI50 (A498) was 38.6 µM (inactive). For the same compound, the GI50 (RPMI-8226) was 15.2 µM (inactive), the GI50 (OVCAR-4) was 24.4 µM (inactive) and the GI50 (KM12) was 29.4 µM (inactive). The GI50 (NCI-H522) was 22.6 µM (inactive), the GI50 (UACC-257) was 43.8 µM (inactive) and the GI50 (MDA-N) was 23.5 µM (inactive). For the same compound, the GI50 (U-251) was 14.8 µM (inactive), the GI50 (HL-60) was 17.4 µM (inactive) and the GI50 (PC-3) was 35.4 µM (inactive). For the same compound, the GI50 (SK-OV-3) was 39.6 µM (inactive), the GI50 (MCF7) was > 100 µM (inactive) and the GI50 (OVCAR-8) was 27.3 µM (inactive). The GI50 (NCI-H23) was 16.3 µM (inactive), the GI50 (SK-MEL-2) was 28.1 µM (inactive) and the GI50 (BT-549) was 16.9 µM (inactive). The GI50 (TK-10) was 80 µM (inactive), the GI50 (SNB-19) was 24.4 µM (inactive) and the GI50 (MDA-MB-231) was 49 µM (inactive). For the same compound, the GI50 (OVCAR-5) was > 100 µM (inactive), the GI50 (UACC-62) was 37.2 µM (inactive) and the GI50 (CCRF-CEM) was 11.4 µM (inactive). The GI50 (SN12C) was 25.5 µM (inactive), the GI50 (M14) was 24.4 µM (inactive) and the GI50 (DU-145) was 38.5 µM (inactive). For the same compound, the GI50 (COLO 205) was 18.4 µM (inactive), the GI50 (LOX IMVI) was 19.8 µM (inactive) and the GI50 (UO-31) was 53.7 µM (inactive). The GI50 (HOP-92) was 27.8 µM (inactive), the GI50 (Hs-578T) was 34.3 µM (inactive) and the GI50 (SF-268) was 26.2 µM (inactive). The GI50 (SK-MEL-5) was 46.2 µM (inactive), the GI50 (OVCAR-3) was 18.4 µM (inactive) and the GI50 (HT-29) was 37.9 µM (inactive). For the same compound, the GI50 (MDA-MB-435) was 21 µM (inactive), the GI50 (786-0) was 23.2 µM (inactive) and the GI50 (SF-295) was 18.2 µM (inactive). For the same compound, the GI50 (SW-620) was 24.7 µM (inactive), the GI50 (SR) was 0.587 µM (active) and the GI50 (NCI-H226) was 33.3 µM (inactive). For the same compound, the GI50 (SF-539) was 37.8 µM (inactive), the GI50 (SNB-75) was 24.5 µM (inactive) and the GI50 (NCI/ADR-RES) was 48.8 µM (inactive). For the same compound, the GI50 (T47D) was 26.7 µM (inactive), the GI50 (HCT-116) was 19.7 µM (inactive) and the GI50 (RXF 393) was 25.6 µM (inactive). For the same compound, the GI50 (EKVX) was 31.6 µM (inactive).
